Results reported in patent US20020197365A1, “Highly acidic metalated mixture of inorganic acids” (priority 2001, published 2002).

Details: in vivo

## O=S(=O)(O)O [sulfuric acid]
  irritation or injury of a hand put into the solution: an irritation would occur within a relatively short span of time
